In patent US11911382B2, “Method for treating pulmonary arterial hypertension and associated pulmonary arterial hypertension” (Altavant Sciences GmbH, priority 2018, dated 2024):

How the values were obtained:
[1] = safety and tolerability in healthy human subjects; assay type: in vivo; details: doses required to achieve clinically-relevant AUC
Description: (§1) Healthy human subjects (n=˜120) may receive RVT-1201.
(§2) Mean change in plasma 5-HIAA may be about −53% from Day 1 to Day 14, whereas placebo may be about +26%. Interpolation of KAR5417 AUC between 400 mg and 800 mg BID regimens may show 500-600 mg BID in humans will achieve the target exposure associated with efficacy in rat models.

[2] = tested on: established PAH, SUGEN-hypoxia treatment model; test: SUGEN-hypoxia treatment model for established PAH; assay type: in vivo; details: rat, oral RVT-1201 100 mg/kg/day
serotonin biosynthesis = test: serotonin biomarkers in rat (serum serotonin, urinary 5-HIAA); assay type: in vivo; details: 30 to 300 mg/kg/day, dose-dependent
Description: RVT-1201 (30 to 300 mg/kg/day) may yield a dose-dependent reduction in rat serum serotonin (−27% to −96%) and 24 h urinary output of 5-HIAA (−45% to −56%). HIAA is a metabolite that reflects total serotonin biosynthesis.

5-HIAA = test: plasma 5-HIAA in healthy human subjects; assay type: in vivo; details: 400 mg BID, Day 1 to Day 14
Description: as §2

[3] = pharmacokinetics in healthy human subjects; assay type: in vivo; details: humans, interpolation of KAR5417 AUC between 400 mg and 800 mg BID regimens
Description: as §1, §2

serotonin biomarkers = test: divided dose studies in rats; assay type: in vivo, rat
TPH1 = biological target: T1, TPH1 (Mus musculus, UniProt P17532); details: amorphous form; cited from earlier work
T1 construct: from tissue; host or cells: live mice (in vivo)
T1 sequence (P17532 1-447): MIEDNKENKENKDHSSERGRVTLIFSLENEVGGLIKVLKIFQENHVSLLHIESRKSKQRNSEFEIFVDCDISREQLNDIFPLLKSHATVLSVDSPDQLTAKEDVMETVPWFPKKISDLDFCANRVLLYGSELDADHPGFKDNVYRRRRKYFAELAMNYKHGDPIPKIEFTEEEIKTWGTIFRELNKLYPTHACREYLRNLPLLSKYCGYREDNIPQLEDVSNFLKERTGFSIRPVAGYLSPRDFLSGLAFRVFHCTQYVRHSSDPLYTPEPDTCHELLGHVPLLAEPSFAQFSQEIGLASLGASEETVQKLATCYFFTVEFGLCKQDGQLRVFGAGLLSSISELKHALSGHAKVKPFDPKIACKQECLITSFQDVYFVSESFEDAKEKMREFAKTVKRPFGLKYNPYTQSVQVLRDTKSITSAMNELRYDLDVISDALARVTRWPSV

[4] = tested on: PAH, monocrotaline prevention model; test: monocrotaline prevention model of PAH; assay type: in vivo; details: rat, oral RVT-1201 100 mg/kg/day
[5] = stability of crystalline polymorphs; assay type: physicochemical; details: particularly at temperatures of less than 95° C.
Source text: The above-referenced compound can be used to prevent or treat PAH/APAH in either an amorphous or crystalline form. Two different polymorph crystalline forms are identified by x-ray powder diffraction patterns set forth in FIG. 1 (Form 3) and FIG. 2 (Form 1) as well as Tables 1 and 2 (Form 3) and Tables 3 and 4 (Form 1).

## CCOC(=O)[C@@H]1CC2(CCN(c3cc(O[C@H](c4ccc(Cl)cc4-c4ccccc4)C(F)(F)F)nc(N)n3)CC2)CN1 [RVT-1201, (S)-ethyl 8-(2-amino-6-((R)-1-(5-chloro-[1,1′-biphenyl]-2-yl)-2,2,2-trifluoroethoxy)pyrimidin-4-yl)-2,8-diazaspiro[4.5]decane-3-carboxylate]
[1]
  tolerability: well tolerated
[2]
  effect on PAH: block or ameliorate PAH
Serotonin biosynthesis
  reduction in 24 h urinary output of 5-HIAA: −45% to −56%
  reduction in rat serum serotonin: −27% to −96%
5-HIAA
  mean change in plasma 5-HIAA: about −53%
[3]
  BID dose achieving target exposure associated with efficacy in rat models: 500 to 600 mg
Serotonin biomarkers
  once daily administration versus BID or TID regimens: comparable to BID or TID regimens
Serotonin biomarkers; 75 mg/kg/day, divided dose studies
  serotonin reduction: ~65%
TPH1
  efficacy in inhibiting TPH1 in mice: demonstrated
[4]
  effect on PAH: block or ameliorate PAH

## CCOC(=O)[C@@H]1CC2(CCN(c3cc(O[C@H](c4ccc(Cl)cc4-c4ccccc4)C(F)(F)F)nc(N)n3)CC2)CN1 [crystalline Form 3, (S)-ethyl 8-(2-amino-6-((R)-1-(5-chloro-[1,1′-biphenyl]-2-yl)-2,2,2-trifluoroethoxy)pyrimidin-4-yl)-2,8-diazaspiro[4.5]decane-3-carboxylate]
[5]
  stability and shelf life compared to crystalline Form 1 polymorph: substantially greater stability and shelf life
